Calls of active or inactive are those of the source. The calls are words filed in the database; no cut-off is given here.

Experiment [1] concerns the target T1, Tyrosine-protein phosphatase non-receptor type 1 (Homo sapiens, UniProt P18031).
T1 sequence (P18031 whole entry): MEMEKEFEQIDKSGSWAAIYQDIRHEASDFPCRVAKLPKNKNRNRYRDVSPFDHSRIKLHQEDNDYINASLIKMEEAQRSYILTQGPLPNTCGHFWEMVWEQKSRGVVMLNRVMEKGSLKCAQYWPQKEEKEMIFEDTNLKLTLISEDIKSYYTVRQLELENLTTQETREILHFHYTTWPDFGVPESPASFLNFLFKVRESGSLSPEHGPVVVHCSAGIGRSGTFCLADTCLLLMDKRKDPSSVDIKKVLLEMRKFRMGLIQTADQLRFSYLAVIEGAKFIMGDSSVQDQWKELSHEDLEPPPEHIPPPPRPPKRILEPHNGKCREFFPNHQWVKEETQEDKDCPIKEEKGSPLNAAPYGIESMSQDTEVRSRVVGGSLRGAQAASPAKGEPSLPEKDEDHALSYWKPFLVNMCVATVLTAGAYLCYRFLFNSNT
In words: (§1) Inhibition of human recombinant PTP1B.

Experiment [2] concerns the target T2, Tyrosine-protein phosphatase non-receptor type 1 (Homo sapiens) (UniProt P18031).
T2 sequence (whole entry): T1 sequence (P18031 whole entry)
The description is as §1.

On to `COc1cc([C@@H]2CC(=O)c3c(O)cc(O)cc3O2)cc2c1OC(C)(CO)C=C2` (some centres undefined), for which, in experiment [1], the IC50 – broadly, the midpoint of a concentration-inhibition curve – came to 17.9 µM.

Turning to `CC(C)=CCc1c([C@@H]2CC(=O)c3c(O)cc(O)cc3O2)cc(O)c2c1C=CC(C)(C)O2`, the IC50 in experiment [1] is 13.9 µM.

Regarding `CC1(CO)C=Cc2cc([C@@H]3CC(=O)c4c(O)cc(O)cc4O3)cc(O)c2O1` (some centres undefined), the concentration for half-maximal inhibition (IC50) in experiment [1] is above 60 µM.

Turning to `CC(C)=CCc1cc([C@@H]2CC(=O)c3c(O)cc(O)cc3O2)cc2c1OC(C)(C)C(O)C2O` (some centres undefined), the IC50 in experiment [1] was determined as 19 µM.

For `CC(C)=CCc1c([C@@H]2CC(=O)c3c(O)cc(O)cc3O2)cc2c(c1O)OC(C)(C)C(O)C2O` (some centres undefined), in experiment [1], the IC50 was found to be 18.2 µM.

As for `CC(C)=CCc1cc([C@@H]2CC(=O)c3c(O)cc(O)cc3O2)cc2c1OC(C)(C)C(O)C2` (some centres undefined), the IC50 in experiment [1] came to 14.9 µM.

In the case of `CC1(C)Oc2ccc([C@@H]3CC(=O)c4c(O)cc(O)cc4O3)cc2C(O)C1O` (some centres undefined), the IC50 in experiment [1] is above 60 µM.

On to `CC1(C)C(C2CC(=O)c3ccccc3O2)=C(O)C(O)=C2OC(O)C(O)C(O)C21` (centres undefined) [SIGMOIDIN G], for which the half-maximal inhibitory concentration (IC50) in experiment [1] was above 60 µM.

With `CC1(C)C=Cc2cc([C@@H]3CC(=O)c4c(O)cc(O)cc4O3)c3c(c2O1)OC(C)(C)C=C3`, the IC50 in experiment [1] was above 60 µM.

On to `CC1(C)Oc2c(O)cc([C@@H]3CC(=O)c4ccc(O)cc4O3)cc2C(O)C1O` (some centres undefined), for which the IC50 in experiment [1] was above 60 µM.

Take `O=C1C[C@@H](c2ccc(O)cc2)Oc2cc(O)cc(O)c21`: the outcome in experiment [2] was inactive.

For `C=C(C)/C=C/c1cc([C@@H]2CC(=O)c3c(O)cc(O)cc3O2)cc(CC=C(C)C)c1OC` [BURTTINONEDEHYDRATE], the IC50 in experiment [1] came to 21.6 µM.

As for `CC1(C)Oc2c(O)cc([C@@H]3CC(=O)c4ccc(O)cc4O3)cc2CC1O` (some centres undefined), the half-inhibitory concentration (IC50) in experiment [1] is above 60 µM.

Turning to `COc1c(/C=C/C(C)(C)O)cc([C@@H]2CC(=O)c3c(O)cc(O)cc3O2)cc1CC=C(C)C` [BURTTINONE], the IC50 in experiment [1] stood at 18.9 µM.

Take `CCCCCCCCCCCCCCCC(=O)C1=C(O)[C@@H](CO)OC1=O`: the IC50 in experiment [1] worked out at 4.7 µM.

Consider `CC1(C)Oc2c(O)cc([C@@H]3CC(=O)c4c(O)cc(O)cc4O3)cc2C[C@@H]1O` [SIGMOIDIN D], for which, in experiment [1], the IC50 is above 60 µM.

For the molecule `COc1cc([C@@H]2CC(=O)c3c(O)cc(O)cc3O2)cc2c1OC(C)(C)C(O)C2` (some centres undefined), the 50% inhibitory concentration (IC50) in experiment [1] came to 18.2 µM.

Regarding `O=C1C[C@@H](c2ccc(O)cc2)Oc2cc(O)ccc21`, in experiment [2], the result was inactive.

Turning to `CC1(C)CC(=O)c2cc([C@@H]3CC(=O)c4c(O)cc(O)cc4O3)cc(O)c2O1`, in experiment [1], the IC50 is above 60 µM.

For the origin of these results see ChEMBL document CHEMBL1140229, “Flavanones from the stem bark of Erythrina abyssinica” (Bioorg Med Chem, 2008).
